Laboratory results from ChEMBL document CHEMBL4130617, “Prenylated 2-Phenoxychromones and Flavonoids from Epimedium brevicornum and Revised Structures of Epimedonins A and B” (J Nat Prod, 2018).
pIC50: −log10 of the molar value.

What was measured:
[1] = test system: SW480; assay: Growth inhibition of human SW480 cells at 40 uM after 48 hrs by MTS assay relative to control; type: functional; conditions: SW480, 48 h, read-out: GI
[2] = test system: MCF7; assay: Cytotoxicity against human MCF7 cells after 48 hrs by MTS assay; type: functional, cell-based; conditions: MCF7, 48 h
[3] = test system: HL-60; assay: Growth inhibition of human HL60 cells at 40 uM after 48 hrs by MTS assay relative to control; type: functional; conditions: HL-60, 48 h, read-out: GI
[4] = test system: MCF7; assay: Growth inhibition of human MCF7 cells at 40 uM after 48 hrs by MTS assay relative to control; type: functional; conditions: MCF7, 48 h, read-out: GI
[5] = test system: SMMC-7721; assay: Cytotoxicity against human SMMC7721 cells after 48 hrs by MTS assay; type: functional, cell-based; conditions: SMMC-7721, 48 h
[6] = test system: A549; assay: Cytotoxicity against human A549 cells after 48 hrs by MTS assay; type: functional, cell-based; conditions: A549, 48 h
[7] = test system: SW480; assay: Cytotoxicity against human SW480 cells after 48 hrs by MTS assay; type: functional, cell-based; conditions: SW480, 48 h
[8] = test system: SMMC-7721; assay: Growth inhibition of human SMMC7721 cells at 40 uM after 48 hrs by MTS assay relative to control; type: functional; conditions: SMMC-7721, 48 h, read-out: GI
[9] = test system: A549; assay: Growth inhibition of human A549 cells at 40 uM after 48 hrs by MTS assay relative to control; type: functional; conditions: A549, 48 h, read-out: GI
[10] = test system: HL-60; assay: Cytotoxicity against human HL60 cells after 48 hrs by MTS assay; type: functional, cell-based; conditions: HL-60, 48 h

Compound | inhibition of growth at 40 µM [1] | pIC50 [2] | inhibition of growth at 40 µM [3] | inhibition of growth at 40 µM [4] | pIC50 [5] | pIC50 [6] | pIC50 [7] | inhibition of growth at 40 µM [8] | inhibition of growth at 40 µM [9] | pIC50 [10]
COc1cc(O)c2c(=O)cc(Oc3ccc(O)cc3)oc2c1C[C@@H](O)C(C)(C)O | > 50% | < 5.00 | > 50% | > 50% | < 5.00 | < 5.00 | < 5.00 | > 50% | > 50% | < 5.00
CC(C)=CCc1cc(Oc2cc(=O)c3c(O)cc(O)c(CC=C(C)C)c3o2)cc(CC=C(C)C)c1O | > 50% | < 5.00 | > 50% | > 50% | < 5.00 | < 5.00 | < 5.00 | > 50% | > 50% | < 5.00
CC(C)=CCc1c(O)cc(O)c2c(=O)cc(Oc3ccc(O)cc3)oc12 | > 50% | < 5.00 | > 50% | > 50% | < 5.00 | < 5.00 | < 5.00 | > 50% | > 50% | < 5.00
CC(=O)O[C@H]1C(=O)[C@@]2(C)[C@H]([C@H](OC(=O)c3ccccc3)[C@]3(O)C[C@H](OC(=O)[C@H](O)[C@@H](NC(=O)c4ccccc4)c4ccccc4)C(C)=C1C3(C)C)[C@]1(OC(C)=O)CO[C@@H]1C[C@@H]2O [PACLITAXEL] |  | > 8.10 |  |  | > 8.10 | > 8.10 | > 8.10 |  |  | > 8.10
C=C(C)C(O)Cc1c(O)cc(O)c2c(=O)cc(Oc3ccc(O)cc3)oc12 (stereo not given) | > 50% | < 5.00 | > 50% | > 50% | < 5.00 | < 5.00 | < 5.00 | > 50% | > 50% | < 5.00
CC(C)=CCc1cc(-c2cc(=O)c3c(O)cc(O)c(CC=C(C)C)c3o2)cc(CC=C(C)C)c1O | > 50% | 5.27 | > 50% | > 50% | < 5.00 | 5.15 | 5.29 | > 50% | > 50% | 5.37
COc1ccc(-c2oc3c(c(O)cc4oc(C(C)(C)O)cc43)c(=O)c2O[C@@H]2O[C@@H](C)[C@H](O)[C@@H](O)[C@H]2O[C@@H]2O[C@@H](C)[C@H](O)[C@@H](O)[C@H]2O)cc1 | > 50% | < 5.00 | > 50% | > 50% | < 5.00 | < 5.00 | < 5.00 | > 50% | > 50% | < 5.00
CC(C)=CCc1cc(Oc2cc(=O)c3c(O)cc(O)c(CC=C(C)C)c3o2)ccc1O | > 50% | < 5.00 | > 50% | > 50% | < 5.00 | < 5.00 | < 5.00 | > 50% | > 50% | < 5.00
COc1cc(O)c2c(=O)cc(Oc3ccc(O)cc3)oc2c1CC=C(C)C | > 50% | < 5.00 | > 50% | > 50% | < 5.00 | < 5.00 | < 5.00 | > 50% | > 50% | < 5.00
